Laboratory results from ChEMBL document CHEMBL1795345, “Significant enhancement in radical-scavenging activity of curcuminoids conferred by acetoxy substituent at the central methylene carbon” (Bioorg Med Chem, 2011).
pEC50: −log10 of the molar value.

Key:
[1] = system: Radical scavenging activity; test: Antioxidant activity assessed as DPPH radical scavenging activity; type: functional
[2] = system: Radical scavenging activity; test: Antioxidant activity assessed as reduction in compound induced DPPH radical scavenging activity at 100 uM in presence of 100 mM acetic acid measured 30 mins after mixing compound with DPPH; type: functional; parameters: scale not given: the % may be the effect or the level left

| pEC50 [1] | Compound | Activity [2] |
| --- | --- | --- |
| 4.63 | COc1cc(/C=C/C(=O)/C(C)=C(O)/C=C/c2ccc(O)c(OC)c2)ccc1O |  |
| 4.58 | CC(=O)O/C(C(=O)/C=C/c1ccc(O)cc1)=C(O)\C=C\c1ccc(O)cc1 | 13% |
| < 4.00 | C=CC/C(C(=O)/C=C/c1ccc(OC)c(OC)c1)=C(O)\C=C\c1ccc(OC)c(OC)c1 |  |
| 4.95 | COc1cc(/C=C/C(=O)/C=C(O)/C=C/c2cc(O)c(O)c(OC)c2)cc(O)c1O |  |
| 4.80 | O=C1O[C@H]([C@@H](O)CO)C(O)=C1O [ASCORBIC ACID] |  |
| 4.56 | COc1cc(/C=C/C(=O)/C(OC(C)=O)=C(O)/C=C/c2cc(OC)c(OC)c(OC)c2)cc(OC)c1OC | 25% |
| < 4.00 | CCOC(=S)S/C(C(=O)/C=C/c1ccc(OC)c(OC)c1)=C(O)\C=C\c1ccc(OC)c(OC)c1 |  |
| < 4.00 | COc1ccc(/C=C/C(=O)/C(C)=C(O)/C=C/c2ccc(OC)c(OC)c2)cc1OC |  |
| < 4.00 | COc1ccc(/C=C/C(=O)/C=C(O)/C=C/c2ccc(OC)c(OC)c2)cc1OC [DIMETHYLCURCUMIN] |  |
| 5.54 | COc1cc(/C=C/C(=O)/C(OC(C)=O)=C(O)/C=C/c2cc(O)c(O)c(OC)c2)cc(O)c1O |  |
| 4.52 | CO/C(C(=O)/C=C/c1ccc(O)c(OC)c1)=C(O)\C=C\c1ccc(O)c(OC)c1 |  |
| 4.12 | CO/C(C(=O)/C=C/c1ccc(OC)c(OC)c1)=C(O)\C=C\c1ccc(OC)c(OC)c1 |  |
| 4.63 | C=CC/C(C(=O)/C=C/c1ccc(O)c(OC)c1)=C(O)\C=C\c1ccc(O)c(OC)c1 |  |
| 4.48 | COc1ccc(/C=C/C(=O)/C(OC(C)=O)=C(O)/C=C/c2ccc(OC)cc2)cc1 | 25% |
| 4.65 | COc1cc(/C=C/C(=O)CC(=O)/C=C/c2ccc(O)c(OC)c2)ccc1O [CURCUMIN] | 10% |
| < 4.00 | COc1ccc(/C=C/C(=O)/C=C(O)/C=C/c2ccc(OC)cc2)cc1 |  |
| 4.32 | CC(=O)O/C(C(=O)/C=C/c1ccccc1)=C(O)\C=C\c1ccccc1 | 25% |
| 4.66 | COc1ccc(/C=C/C(=O)/C(OC(C)=O)=C(O)/C=C/c2ccc(OC)c(OC)c2)cc1OC | 25% |
| 5.06 | COc1cc(/C=C/C(=O)/C(OC(C)=O)=C(O)/C=C/c2ccc(O)c(OC)c2)ccc1O | 10% |
| < 4.00 | O=C(/C=C/c1ccc(O)cc1)CC(=O)/C=C/c1ccc(O)cc1 [BISDEMETHOXYCURCUMIN] |  |
| < 4.00 | O=C(/C=C(O)/C=C/c1ccccc1)/C=C/c1ccccc1 |  |
| 4.53 | CCOC(=S)S/C(C(=O)/C=C/c1ccc(O)c(OC)c1)=C(O)\C=C\c1ccc(O)c(OC)c1 |  |
